Key:
Assay type in all cases: physicochemical
[1] = Solubility of dye in organic solvent at 25° C.
[2] = Thermal stability of films (chromaticity difference before and after hard baking); settings: for Thermal stability of a film at 230° C. (ΔEab): film with acrylic resin baked at 230° C. under air for 1 hour, smaller = better heat resistance; for Thermal stability (in words): summary referring to Table 1
Protocol: The obtained dry film was baked at 230° C. under air for 1 hour to evaluate thermal stability of the film. Optical performance before and after baking (ΔEab value) was 1.6. A smaller ΔEab value indicates better heat resistance.
(4) Thermal Stability of Films (Chromaticity):
The wet film after spin coating is dried in oven at 90° C. for 30 minutes and then soft baked at 150° C. for 15 minutes. The chromaticity coordinates (L, a, b) are recorded with UltraScan Pro (Hunterlab) colorimeter. D65 light source is used and results are based on CIE Lab coordinates. After that the film is hard baked at target temperature (230° C.) for 1 hour and the new chromaticity coordinates (L′, a′, b′) are recorded with the method above. The thermal stability of a film is indicated by the difference of chromaticity coordinate before and after hard baking represented by the following formula;
ΔE=√{square root over ((L−L′)^2+(a−a′)^2+(b−b′)^2)}

[3] = Thermal stability of dyes (mass loss measured by TGA); settings: air atmosphere
Protocol: (1) Thermal Stability of Dyes (Mass Loss Measured by TGA):
The thermal stability of dye itself was determined by the mass loss of dye measured by TGA under air atmosphere at 230° C. for 1 hour. This evaluation reflects chemical stability of the dye itself

| Solubility in PGMEA at 25° C. (wt %) [1] | Solubility in cyclohexanone at 25° C. (wt %) [1] | Thermal stability of a film at 230° C. (ΔEab) [2] | Thermal stability (in words) [2] | Mass loss measured by TGA at 230° C. for 1 hour (%) [3] [%] | Molecule | Solubility in cyclohexanone and PGMEA (in words) ([1]; summary referring to Table 1) |
| --- | --- | --- | --- | --- | --- | --- |
| 1.23 wt % | 3.0 wt % | 18.4 | very poor thermal stability | 14.04 | CNc1ccc(Nc2cccc(C)c2)c2c1C(=O)c1ccccc1C2=O [compound 1, C.I. solvent blue 63] |  |
| 1.98 wt % | 4.0 wt % | 13.3 | very poor thermal stability | 9.56 | C.I. disperse red 343 [compound 2] |  |
| 0.17 wt % | 9.0 wt % | 21.5 | very poor thermal stability | 13.08 | CCCCOc1ccc(OCCCC)c2c1-c1nc-2nc2[nH]c(nc3nc(nc4[nH]c(n1)c1c(OCCCC)ccc(OCCCC)c41)-c1c(OCCCC)ccc(OCCCC)c1-3)c1c(OCCCC)ccc(OCCCC)c21 [compound 3] |  |

| Molecule | Solubility in PGMEA at 25° C. (wt %) [1] | Solubility in cyclohexanone at 25° C. (wt %) [1] | Thermal stability of a film at 230° C. (ΔEab) [2] | Thermal stability (in words) [2] | Mass loss measured by TGA at 230° C. for 1 hour (%) [3] [%] | Solubility in cyclohexanone and PGMEA (in words) ([1]; summary referring to Table 1) |
| --- | --- | --- | --- | --- | --- | --- |
| c1ccc2c(c1)C1=Nc3c4ccccc4c4[n]3[Cu-2]35[n]6c(c7ccccc7c6=NC6=[N+]3C(=N4)c3ccccc36)=NC2=[N+]15 [compound 4] | insoluble | insoluble |  |  | 0.02 | insoluble |
